The record followed here is patent US20030206953A1, “Aggregates of spherical multivalent metal alginate microparticles and methods of making them” (priority 1997, published 2003).

One data set can be described thus: physchem. As to conditions: 20 °C, water, thermodynamic from solid.
Data set [1] can be described thus: Solubility in water per Japanese Pharmacopoeia (13th Amendment). The following applies: 20 °C, thermodynamic from solid.
Experimental: (§1) As used herein, the term “solubility” in accordance with the Japanese Pharmacopoeia (the 13th Amendment) refers to the degree of dissolution of a medicament in a solvent within 30 minutes when 1 g of the medicament is added to the solvent and mixing them with vigorous shaking at intervals of 5 minutes at 20° C.±5° C. In the present specification, the solubility is evaluated in accordance with this method. When the amount (ml) of water required to dissolve 1 g of a medicament is 30 ml or more, the solubility of the medicament represents the grades of “slightly soluble” or “hardly soluble”.
Data set [2] in a line: Dissolution test, paddle method, second solution (artificial intestinal juice, pH 6.8). The format is physicochemical. The following applies: artificial intestinal juice (second solution, pH 6.8); within two hours; FIG. 3. The text has this: As used herein, the term “artificial intestinal juice (the second solution, pH 6.8)” refers to a phosphate buffer of pH 6.8 as described in the Japanese Pharmacopoeia (the 13th Amendment), the section of dissolution test, the second method (paddle method). As used herein, the term “dissolution rate” refers to a value given by dividing the actual elution concentration of a slightly soluble medicament by the calculated elution concentration and expressing the resultant value as a percent. Here, the term “calculated elution concentration” refers to the concentration given when hypothesizing that the entire slightly soluble medicament added to the second solution is dissolved. For example, the calculated elution concentration of a slightly soluble medicament given when 5 g of the medicament is added to 500 ml of the second solution is 10 mg/ml. In this case, when the actual elution concentration is 5 mg/ml, the dissolution rate is 50%.
In general, the dissolution rate of a slightly soluble medicament by itself is slow in the artificial intestinal juice, and the saturated dissolution amount is small. Therefore, the saturated dissolution concentration tends to be smaller than the calculated concentration. […]

Converted amounts (≈) assume the structure as drawn.

Experimental for physchem: as §1

Regarding `CC(=O)Nc1ccc(O)cc1` [Acetaminophen, acetaminophen], in the data set “physchem”, the solubility (in general, the dissolved amount per volume that the medium holds) at 30 min came to 13.1 mg/mL (≈ 86.7 mM).
In data set [1], `CC(=O)Oc1ccccc1C(=O)O` [Aspirin, aspirin] gave a solubility at 30 min of 3.63 mg/mL (≈ 20.1 mM).
With `CCOc1ccccc1C(N)=O` [Ethenzamide], the solubility at 30 min in data set [1] was < 0.1 mg/mL.
For the compound `COc1ccc2c(c1)c(CC(=O)O)c(C)n2C(=O)c1ccc(Cl)cc1` [Indomethacin, indomethacin], the solubility at 30 min in the data set “physchem” was < 0.1 mg/mL. The dissolution rate entry in data set [2] is “less than 40%”.
